Experimental data: US8703813B2, “Compound with spiro chiral carbon backbone, preparation method thereof, and pharmaceutical composition containing the same” (SNU R & DB Foundation, priority 2008, dated 2014)

Columns and labels:
[1] = molecular target: T1, LXRα (Homo sapiens, UniProt Q13133); assay: LXR antagonistic activity, GAL-hLXR luciferase transfection assay in CV-1 cells; format: cell-based; conditions: antagonism, together with agonist TO901317 (2.5 μM), 24 hours
T1 sequence (Q13133 209-447 limits assumed): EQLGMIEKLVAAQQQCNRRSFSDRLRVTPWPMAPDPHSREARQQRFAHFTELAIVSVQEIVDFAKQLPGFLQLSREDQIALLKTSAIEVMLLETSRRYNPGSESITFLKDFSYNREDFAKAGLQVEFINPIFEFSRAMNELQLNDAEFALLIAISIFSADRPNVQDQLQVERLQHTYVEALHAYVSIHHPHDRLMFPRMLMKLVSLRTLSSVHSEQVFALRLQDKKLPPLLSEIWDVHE
Protocol: (§1) Animal cell line CV-1 was used in transfection search. Cells were cultured in DMEM medium within a cell culture device containing 5% carbon dioxide at 37° C. The medium contained 10% FBS (fetal bovine serum), 100 U/ml penicillin, and 100 μg/ml streptomycin. On day 1 of the experiment, CV 1 cells were seeded in 96 well plates at 5,000 cells/well. On day 2, the seeded cells were transfected with plasmid expressing GAL-hLXR, plasmid expressing Luciferase gene, and plasmid expressing β-galactocidase by using a transfection reagent, Superfect (QIAGEN). After 16 hours, the transfected cells were treated with the compound 1 dissolved in dimethylsulfoxide (DMSO) by the concentrations, together with the agonist, TO901317 (2.5 μM). Cells treated with dimethylsulfoxide having the final concentration of 1% were used as a negative control group, and cells treated with T0901317 having the final concentration of 500 nM were used as a positive control group. The cells were cultured for 24 hours, and lysed by using a lysis buffer. […] The β-galactosidase activity, after adding of an ONPG reagent, was measured using an ELISA reader. The measured Luciferase value was corrected by activity value of β-galactosidase. […] In addition, the activities on various nuclear receptors were measured by using the same method, in order to measure selectivity for various nuclear receptors.

[2] = molecular target: T2, LXRβ (Homo sapiens, UniProt P55055); assay: as above; format: cell-based; conditions: antagonism, together with agonist TO901317 (2.5 μM), 24 hours
T2 sequence (P55055 222-460 limits assumed): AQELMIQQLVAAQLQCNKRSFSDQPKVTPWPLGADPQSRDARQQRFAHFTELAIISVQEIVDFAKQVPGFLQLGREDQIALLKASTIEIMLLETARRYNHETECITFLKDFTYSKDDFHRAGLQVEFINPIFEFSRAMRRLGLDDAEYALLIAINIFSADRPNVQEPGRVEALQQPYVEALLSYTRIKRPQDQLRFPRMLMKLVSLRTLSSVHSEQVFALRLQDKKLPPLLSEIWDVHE
Protocol: as §1

[3] = system: AML12 cells; assay: Gene expression regulation in liver cells (real-time PCR); format: cell-based; conditions: AML12 mouse liver cells, 1 μM alone or with 500 nM T0901317, 18 hours
Protocol: (§2) In order to verify efficacy of the developed liver-X-receptor antagonist, the function of regulating gene expression was identified in mouse liver cells and human liver cells. In the present experiment, mouse liver cells, AML 12 cells and human liver cells, and HepG2 cells were used. AML12 cells were cultured in DMEM medium within a cell incubator with 5% carbon dioxide at 37° C. The medium contained 10% fetal bovine serum (FBS), 100 U/ml penicillin, and 100 μg/ml streptomycin. On day 1 of the experiment, AML12 cells are seeded in 6 well plates. On day 2, when the cells were grown to 80% confluency, the medium was replaced by the DMEM medium not containing serum, and then three wells per treatment group were treated with TO901317 and the developed liver-X-receptor antagonist. […] The extracted RNAs were quantified, and 1 μg of the extracted RNAs per each sample were used in cDNA synthesis. […] The cDNAs synthesized for the real-time polymerase chain reaction were mixed with primer selective for ACC1 or Actine gene and QuantiTech Master Mix (QIAGEN). […] The Ct values per each treatment group were compared with the Ct values of the negative control group, and the differences in expression amount of genes were calculated. […]

[4] = system: HepG2 cells; assay: as above; format: cell-based; conditions: HepG2 human liver cells
Protocol: as §2

[5] = Solubility in organic solvents; format: physicochemical

IC50 [1]: 18.7 nM
IC50 [2]: 20.4 nM
SMILES: CC(C)=CCC/C(C)=C/[C@H]1CC(C)=C[C@@]2(C=C(CO)[C@@H]3CC(=O)C(C)=C[C@@H]3O2)O1 [Compound 1]
expression of fatty acid biosynthesis genes SREBP1c, ACC, and FAS [3]: inhibited the expression
expression of fatty acid biosynthesis genes SREBP1c, ACC, and FAS [4]: inhibited the expression
Solubility [5]: Easily Dissolved in Organic Solvent of Acetone, Methanol, DMSO, etc.
